# Test results as given in US20250213575A1, “8-HETEROCYCLIC-3-(PHENYLSULFONYL)-[1,2,3]TRIAZOLO[1,5A]QUINAZOLIN-5(4H)-ONE DERIVATIVES AS ANTI-BACTERIALS” (priority 2022, published 2025).
# Marks after values point to notes of the source that are not given here.
# Biological target: AgrA (Staphylococcus aureus, UniProt P0A0I7)
# Assay: cell-based
# Design: species or system S. aureus USA300 strain UAMS-1625
# Settings: for Ratio IC50 (in presence of HSA)/IC50 (in absence of HSA): 40 mg/mL HSA vs without HSA
# [1] = IC50 at 40 mg/mL HSA, LB medium supplemented with 40 mg/mL human serum albumin
# [2] = IC50 without HSA, LB medium, without HSA
# AgrA, sequence (P0A0I7 whole entry): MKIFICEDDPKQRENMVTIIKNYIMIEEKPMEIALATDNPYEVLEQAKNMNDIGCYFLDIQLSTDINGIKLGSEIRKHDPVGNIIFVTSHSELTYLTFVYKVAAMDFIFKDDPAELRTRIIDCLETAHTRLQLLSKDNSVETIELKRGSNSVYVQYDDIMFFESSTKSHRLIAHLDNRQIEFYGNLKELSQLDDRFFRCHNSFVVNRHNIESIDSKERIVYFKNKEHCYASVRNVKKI
Compound,Ratio IC50 (in presence of HSA)/IC50 (in absence of HSA),IC50 [1] [µM],IC50 [2] [µM],IC50 at 40 mg/mL HSA (LB medium supplemented with 40 mg/mL human serum albumin),"IC50 without HSA (LB medium, without HSA)","IC50 (IC50 at 40 mg/mL HSA (cells marked *), marked *: activity in presence of 50% of human serum, not determined in 40 mg/mL HSA) [µM]",Ratio (cells marked *) (calculated based on activity in presence of 50% of human serum),"IC50 (concentration inhibiting the expression of lacZ, in the absence of HSA or HS) [µM]"
"Cc1ccc(S(=O)(=O)c2n[nH]n3c2nc(=O)c2ccc(N4CC5(C4)CC(C)(O)C5)cc23)c(C)c1 [Compound 21, 3-(2,4-dimethylbenzenesulfonyl)-8-{6-hydroxy-6-methyl-2-azaspiro[3.3]heptan-2-yl}-1H,5H-[1,2,3]triazolo[1,5-a]quinazolin-5-one]",++ (ratio ≤ 125),20.9 to 104,< 2.09,–,–,–,–,–
"3-(2,4-dimethylbenzenesulfonyl)-8-(4-methanesulfonylpiperazin-1-yl)-4H,5H-[1,2,3]triazolo[1,5-a]quinazolin-5-one [Compound 61]",++ (ratio ≤ 125),–,–,++ (10 μg/mL < IC50 ≤ 50 μg/mL),+++ (IC50 ≤ 1 μg/mL),–,–,–
"Cc1ccc(S(=O)(=O)c2nnn3c2[nH]c(=O)c2ccc(N4CCN5CCC[C@@H]5C4)cc23)c(C)c1 [Compound 38, 8-[(8aR)-octahydropyrrolo[1,2-a]pyrazin-2-yl]-3-(2,4-dimethylbenzenesulfonyl)-4H,5H-[1,2,3]triazolo[1,5-a]quinazolin-5-one]",+++ (ratio ≤ 25),20.9 to 104,2.09 to 10.4,–,–,–,–,–
"Cc1ccc(S(=O)(=O)c2n[nH]n3c2nc(=O)c2ccc(N4CCN(C5CCOCC5)CC4)cc23)c(C)c1 [Compound 56, 3-(2,4-dimethylbenzenesulfonyl)-8-[4-(oxan-4-yl)piperazin-1-yl]-1H,5H-[1,2,3]triazolo[1,5-a]quinazolin-5-one]",+++ (ratio ≤ 25),19.1 to 95.7,< 1.91,–,–,–,–,–
"Cc1ccc(S(=O)(=O)c2nnn3c2[nH]c(=O)c2ccc(N4CCC5(CNCCO5)C4)cc23)c(C)c1 (stereo not drawn) [Compound 7, 3-(2,4-dimethylbenzenesulfonyl)-8-{6-oxa-2,9-diazaspiro[4.5]decan-2-yl}-4H,5H-[1,2,3]triazolo[1,5-a]quinazolin-5-one]",+++ (ratio ≤ 25),< 20.2,< 2.02,–,–,–,–,–
"Cc1ccc(S(=O)(=O)c2nnn3c2[nH]c(=O)c2ccc(N4CCN(C(=O)C(C)C)CC4)cc23)c(C)c1 [Compound 52, 3-(2,4-dimethylbenzenesulfonyl)-8-[4-(2-methylpropanoyl)piperazin-1-yl]-4H,5H-[1,2,3]triazolo[1,5-a]quinazolin-5-one]",+++ (ratio ≤ 25),19.7 to 98.3,< 1.97,–,–,–,–,–
"Cc1ccc(S(=O)(=O)c2nnn3c2[nH]c(=O)c2ccc(N4CCN(CCOCCO)CC4)cc23)c(C)c1 [Compound 45, 3-(2,4-dimethylbenzenesulfonyl)-8-{4-[2-(2-hydroxyethoxy)ethyl]piperazin-1-yl}-4H,5H-[1,2,3]triazolo[1,5-a]quinazolin-5-one]",+++ (ratio ≤ 25),19 to 94.9,< 1.9,–,–,–,–,–
"Cc1ccc(S(=O)(=O)c2nnn3c2[nH]c(=O)c2ccc(N4CCC5(CN(C)CCO5)C4)cc23)c(C)c1 (stereo not drawn) [Compound 8, 3-(2,4-dimethylbenzenesulfonyl)-8-{9-methyl-6-oxa-2,9-diazaspiro[4.5]decan-2-yl}-4H,5H-[1,2,3]triazolo[1,5-a]quinazolin-5-one]",+++ (ratio ≤ 25),19.7 to 98.3,< 1.97,–,–,–,–,–
"COCCOc1cc2c(cc1O)c(=O)[nH]c1c(S(=O)(=O)c3ccc(C)cc3C)nnn12 [58 (WO 2020/109350), reference compound]",–,–,< 2.25,–,–,> 112,+* (ratio > 125),< 2.25
"Cc1ccc(S(=O)(=O)c2n[nH]n3c2nc(=O)c2ccc(N4CCN(C5CCN(C)CC5)CC4)cc23)c(C)c1 [Compound 59, 3-(2,4-dimethylbenzenesulfonyl)-8-[4-(1-methylpiperidin-4-yl)piperazin-1-yl]-1H,5H-[1,2,3]triazolo[1,5-a]quinazolin-5-one]",+++ (ratio ≤ 25),18.7 to 93.3,1.87 to 9.33,–,–,–,–,–
"Cc1ccc(S(=O)(=O)c2nnn3c2[nH]c(=O)c2ccc(N4CCOC5(CNC5)C4)cc23)c(C)c1 [Compound 9, 3-(2,4-dimethylbenzenesulfonyl)-8-{5-oxa-2,8-diazaspiro[3.5]nonan-8-yl}-4H,5H-[1,2,3]triazolo[1,5-a]quinazolin-5-one]",+++ (ratio ≤ 25),20.8 to 104,2.08 to 10.4,–,–,–,–,–
"Cc1ccc(S(=O)(=O)c2nnn3c2[nH]c(=O)c2ccc(N4CCN(C)CC4)cc23)c(C)c1 [Compound 22, 3-(2,4-dimethylbenzenesulfonyl)-8-(4-methylpiperazin-1-yl)-4H,5H-[1,2,3]triazolo[1,5-a]quinazolin-5-one]",+++ (ratio ≤ 25),22.1 to 110,< 2.21,–,–,–,–,–
"Cc1ccc(S(=O)(=O)c2nnn3c2[nH]c(=O)c2ccc(N4CCN(CCN)CC4)cc23)c(C)c1 [Compound 57, 8-[4-(2-aminoethyl)piperazin-1-yl]-3-(2,4-dimethylbenzenesulfonyl)-4H,5H-[1,2,3]triazolo[1,5-a]quinazolin-5-one]",+++ (ratio ≤ 25),20.8 to 104,2.08 to 10.4,–,–,–,–,–
"Cc1ccc(S(=O)(=O)c2nnn3c2[nH]c(=O)c2ccc(N4CCCN(C)CC4)cc23)c(C)c1 [Compound 49, 3-(2,4-dimethylbenzenesulfonyl)-8-(4-methyl-1,4-diazepan-1-yl)-4H,5H-[1,2,3]triazolo[1,5-a]quinazolin-5-one]",+++ (ratio ≤ 25),21.4 to 107,2.14 to 10.7,–,–,–,–,–
"Cc1ccc(S(=O)(=O)c2n[nH]n3c2nc(=O)c2ccc(N4CCC5(CC4)CN(C)CCO5)cc23)c(C)c1 [Compound 16, 3-(2,4-dimethylbenzenesulfonyl)-8-{4-methyl-1-oxa-4,9-diazaspiro[5.5]undecan-9-yl}-1H,5H-[1,2,3]triazolo[1,5-a]quinazolin-5-one]",++ (ratio ≤ 125),19.1 to 95.7,< 1.91,–,–,–,–,–
"Cc1ccc(S(=O)(=O)c2n[nH]n3c2nc(=O)c2ccc(N4CCC5(CCN(C)CC5)C4)cc23)c(C)c1 [Compound 3, 3-(2,4-dimethylbenzenesulfonyl)-8-{8-methyl-2,8-diazaspiro[4.5]decan-2-yl}-1H,5H-[1,2,3]triazolo[1,5-a]quinazolin-5-one]",+++ (ratio ≤ 25),< 19.7,< 1.97,–,–,–,–,–
"Cc1ccc(S(=O)(=O)c2nnn3c2[nH]c(=O)c2ccc(N4CCN(C(C)(C)C)CC4)cc23)c(C)c1 [Compound 41, 8-(4-tert-butylpiperazin-1-yl)-3-(2,4-dimethylbenzenesulfonyl)-4H,5H-[1,2,3]triazolo[1,5-a]quinazolin-5-one]",+++ (ratio ≤ 25),20.2 to 101,2.02 to 10.1,–,–,–,–,–
"Cc1ccc(S(=O)(=O)c2nnn3c2[nH]c(=O)c2ccc(N4CCN5CCCC5C4)cc23)c(C)c1 (stereo not drawn) [Compound 36, 3-(2,4-dimethylbenzenesulfonyl)-8-{octahydropyrrolo[1,2-a]pyrazin-2-yl}-4H,5H-[1,2,3]triazolo[1,5-a]quinazolin-5-one]",+++ (ratio ≤ 25),20.9 to 104,< 2.09,–,–,–,–,–
"Cc1ccc(S(=O)(=O)c2n[nH]n3c2nc(=O)c2ccc(N4CCOC5(CCN(C)CC5)C4)cc23)c(C)c1 [Compound 18, 3-(2,4-dimethylbenzenesulfonyl)-8-{9-methyl-1-oxa-4,9-diazaspiro[5.5]undecan-4-yl}-1H,5H-[1,2,3]triazolo[1,5-a]quinazolin-5-one]",+++ (ratio ≤ 25),19.1 to 95.7,1.91 to 9.57,–,–,–,–,–
"Cc1ccc(S(=O)(=O)c2nnn3c2[nH]c(=O)c2ccc(N4CCOC5(CN(C)C5)C4)cc23)c(C)c1 [Compound 10, 3-(2,4-dimethylbenzenesulfonyl)-8-{2-methyl-5-oxa-2,8-diazaspiro[3.5]nonan-8-yl}-4H,5H-[1,2,3]triazolo[1,5-a]quinazolin-5-one]",+++ (ratio ≤ 25),20.2 to 101,2.02 to 10.1,–,–,–,–,–
"CCN(CC)CCC(=O)N1CCN(c2ccc3c(=O)[nH]c4c(S(=O)(=O)c5ccc(C)cc5C)nnn4c3c2)CC1 [Compound 58, 8-{4-[3-(diethylamino)propanoyl]piperazin-1-yl}-3-(2,4-dimethylbenzenesulfonyl)-4H,5H-[1,2,3]triazolo[1,5-a]quinazolin-5-one]",–,17.7 to 88.4,1.77 to 8.84,–,–,–,–,–
"COCCN1CCN(c2ccc3c(=O)[nH]c4c(S(=O)(=O)c5ccc(C)cc5C)nnn4c3c2)CC1 [Compound 42, 3-(2,4-dimethylbenzenesulfonyl)-8-[4-(2-methoxyethyl)piperazin-1-yl]-4H,5H-[1,2,3]triazolo[1,5-a]quinazolin-5-one]",+++ (ratio ≤ 25),20.1 to 101,2.01 to 10.1,–,–,–,–,–
"Cc1ccc(S(=O)(=O)c2n[nH]n3c2nc(=O)c2ccc(N4CCC5(CC4)CNCCO5)cc23)c(C)c1 [Compound 15, 3-(2,4-dimethylbenzenesulfonyl)-8-{1-oxa-4,9-diazaspiro[5.5]undecan-9-yl}-1H,5H-[1,2,3]triazolo[1,5-a]quinazolin-5-one]",+++ (ratio ≤ 25),19.7 to 98.3,< 1.97,–,–,–,–,–
"Cc1ccc(S(=O)(=O)c2nnn3c2[nH]c(=O)c2ccc(N4CC5(CN(C)C5)C4)cc23)c(C)c1 [Compound 14, 3-(2,4-dimethylbenzenesulfonyl)-8-{6-methyl-2,6-diazaspiro[3.3]heptan-2-yl}-4H,5H-[1,2,3]triazolo[1,5-a]quinazolin-5-one]",+++ (ratio ≤ 25),21.5 to 108,2.15 to 10.8,–,–,–,–,–
